According to ChEMBL document CHEMBL5724914, “Linking interpersonal differences in gut microbiota composition and drug biotransformation activity” (2024):

Tests used:
[1] = human gut metagenome, 24 h, 2 µM
[2] = human gut metagenome, 24 h, 2 µM; remark: listed apart in the source
[3] = human gut metagenome, 24 h, 2 µM; remark: listed apart in the source
[4] = The drug is tested on Z-014 corresponding to rat gut metagenome with ENA study accession number: PRJEB37062 and ENA sample accession number: ERS12561814 for biotransformation under anaerobic condition. The drug concentrations were measured over 9 timepoints collected between 0 and 24 hours of incubation by liquid-chromatography-coupled mass spectrometry (LC–MS); conditions: 2 µM
[5] = The drug is tested on WLS-039 corresponding to human gut metagenome with ENA study accession number: PRJEB37062 and ENA sample accession number: ERS12561746 for biotransformation under anaerobic condition. The drug concentrations were measured over 9 timepoints collected between 0 and 24 hours of incubation by liquid-chromatography-coupled mass spectrometry (LC–MS); conditions: 2 µM
[6] = human gut metagenome, 24 h, 2 µM; remark: listed apart in the source
[7] = The drug is tested on Z-022 corresponding to mouse gut metagenome with ENA study accession number: PRJEB37062 and ENA sample accession number: ERS12561821 for biotransformation under anaerobic condition. The drug concentrations were measured over 9 timepoints collected between 0 and 24 hours of incubation by liquid-chromatography-coupled mass spectrometry (LC–MS); conditions: 2 µM
[8] = The drug is tested on Z-018 corresponding to pig gut metagenome with ENA study accession number: PRJEB37062 and ENA sample accession number: ERS12561817 for biotransformation under anaerobic condition. The drug concentrations were measured over 9 timepoints collected between 0 and 24 hours of incubation by liquid-chromatography-coupled mass spectrometry (LC–MS); conditions: 2 µM
[9] = The drug is tested on WLS-027 corresponding to human gut metagenome with ENA study accession number: PRJEB37062 and ENA sample accession number: ERS12561744 for biotransformation under anaerobic condition. The drug concentrations were measured over 9 timepoints collected between 0 and 24 hours of incubation by liquid-chromatography-coupled mass spectrometry (LC–MS); conditions: 2 µM
[10] = human gut metagenome, 24 h, 2 µM; remark: listed apart in the source
[11] = The drug is tested on WLS-090 corresponding to human gut metagenome with ENA study accession number: PRJEB37062 and ENA sample accession number: ERS12561753 for biotransformation under anaerobic condition. The drug concentrations were measured over 9 timepoints collected between 0 and 24 hours of incubation by liquid-chromatography-coupled mass spectrometry (LC–MS); conditions: 2 µM
[12] = human gut metagenome, 24 h, 2 µM; remark: listed apart in the source
[13] = The drug is tested on Z-029 corresponding to rat gut metagenome with ENA study accession number: PRJEB37062 and ENA sample accession number: ERS12561828 for biotransformation under anaerobic condition. The drug concentrations were measured over 9 timepoints collected between 0 and 24 hours of incubation by liquid-chromatography-coupled mass spectrometry (LC–MS); conditions: 2 µM
[14] = The drug is tested on WLS-010 corresponding to human gut metagenome with ENA study accession number: PRJEB37062 and ENA sample accession number: ERS12561743 for biotransformation under anaerobic condition. The drug concentrations were measured over 9 timepoints collected between 0 and 24 hours of incubation by liquid-chromatography-coupled mass spectrometry (LC–MS); conditions: 2 µM
[15] = human gut metagenome, 24 h, 2 µM; remark: listed apart in the source
[16] = The drug is tested on WLS-038 corresponding to human gut metagenome with ENA study accession number: PRJEB37062 and ENA sample accession number: ERS12561745 for biotransformation under anaerobic condition. The drug concentrations were measured over 9 timepoints collected between 0 and 24 hours of incubation by liquid-chromatography-coupled mass spectrometry (LC–MS); conditions: 2 µM
[17] = human gut metagenome, 24 h, 2 µM; remark: listed apart in the source
[18] = The drug is tested on WLS-350 corresponding to human gut metagenome with ENA study accession number: PRJEB37062 and ENA sample accession number: ERS12561789 for biotransformation under anaerobic condition. The drug concentrations were measured over 9 timepoints collected between 0 and 24 hours of incubation by liquid-chromatography-coupled mass spectrometry (LC–MS); conditions: 2 µM
[19] = The drug is tested on Z-010 corresponding to metagenome with ENA study accession number: PRJEB37062 and ENA sample accession number: ERS12561810 for biotransformation under anaerobic condition. The drug concentrations were measured over 9 timepoints collected between 0 and 24 hours of incubation by liquid-chromatography-coupled mass spectrometry (LC–MS); conditions: 2 µM
[20] = human gut metagenome, 24 h, 2 µM; remark: listed apart in the source
Note: call rule not given here.

Row | Compound | Bacterial Biotransformation [1] | Bacterial Biotransformation [2] | Bacterial Biotransformation [3] | Bacterial Biotransformation [4] | Bacterial Biotransformation [5] | Bacterial Biotransformation [6] | Bacterial Biotransformation [7] | Bacterial Biotransformation [8] | Bacterial Biotransformation [9] | Bacterial Biotransformation [10] | Bacterial Biotransformation [11] | Bacterial Biotransformation [12] | Bacterial Biotransformation [13] | Bacterial Biotransformation [14] | Bacterial Biotransformation [15] | Bacterial Biotransformation [16] | Bacterial Biotransformation [17] | Bacterial Biotransformation [18] | Bacterial Biotransformation [19] | Bacterial Biotransformation [20]
1 | OCCOCCN1CCN(C2=Nc3ccccc3Sc3ccccc32)CC1 [QUETIAPINE] | Compound NOT metabolized | Compound metabolized | Compound NOT metabolized | Compound NOT metabolized | Compound NOT metabolized | Compound metabolized | Compound NOT metabolized | Compound metabolized | Compound metabolized | Compound NOT metabolized | Compound metabolized | Compound metabolized | Compound NOT metabolized | Compound NOT metabolized | Compound NOT metabolized | Compound NOT metabolized | Compound NOT metabolized | Compound NOT metabolized | Compound NOT metabolized | Compound metabolized
2 | CCC(=O)NCC[C@@H]1CCc2ccc3c(c21)CCO3 [RAMELTEON] | Compound NOT metabolized | Compound metabolized | Compound metabolized | Compound metabolized | Compound metabolized | Compound metabolized | Compound metabolized | Compound metabolized | Compound metabolized | Compound metabolized | Compound metabolized | Compound metabolized | Compound NOT metabolized | Compound metabolized | Compound metabolized | Compound metabolized | Compound NOT metabolized | Compound metabolized | Compound metabolized | Compound metabolized
3 | CNC(=C[N+](=O)[O-])NCCSCc1ccc(CN(C)C)o1 [RANITIDINE] | Compound metabolized | Compound metabolized | Compound metabolized | Compound metabolized | Compound NOT metabolized | Compound NOT metabolized | Compound metabolized | Compound metabolized | Compound NOT metabolized | Compound metabolized | Compound NOT metabolized | Compound metabolized | Compound metabolized | Compound NOT metabolized | Compound NOT metabolized | Compound NOT metabolized | Compound NOT metabolized | Compound NOT metabolized | Compound metabolized | Compound metabolized
